We go through 2 compounds from patent US20190015484A1, “NICOTINE-DEGRADING ENZYMES FOR TREATING NICOTINE ADDICTION AND NICOTINE POISONING” (priority 2015, published 2019).

One series has as its system Swiss Webster mice. As to the kind of experiment: Toxicity of reaction product to mice. The class given is in vivo, mouse. On the procedure: Short-term experiments were performed by administrating 35, 70 140 ng of […] to male Swiss Webster mice (about 20 g, n=4 for each group) daily. Their viability and behavior was recorded.
Long-term experiments were performed by administrating 200 ng to the same species of mice (n=7) every other day for 5 weeks. At the end of the 5th week, the mice were euthanized and autopsied.
The clinical utility of an enzyme also relates to the toxicity and addictive properties of the reaction products. […] However, it has been reported as a likely precursor to 4-(methylnitrosamino)-1-(3-pyridyl)-1-butanone (NNK), a potential carcinogen.^20 To investigate any harmful effects of 4, toxicology studies were performed in which mice were administered pseudooxynicotine (4).
Mice received 35, 70 or 140 ng of compound 4 daily, which is representative of the typical range of nicotine amounts (4-72 ng/mL) found in smokers,^19 if fully converted to compound 4. […] In addition, the long-term exposure (5-weeks) of 4 was evaluated where the mice were dosing every other day with 200 ng compound 4 per dose.

For series [1] the following is noted: humans, cited from earlier work.
Series [2] addresses neuronal nicotinic acetylcholine receptors (nAChR). The settings on record: read-out: Ki for nAChr; cited from earlier work.
Series [3] has the same target. The conditions noted are these: cited from earlier work.

Structures are written as SMILES. Like-named read-outs stand apart in the source and are kept apart here. Some results are limits rather than exact numbers.

What is called Ki is the dissociation constant of the complex between target and ligand, obtained from inhibition or displacement. By EC50 is commonly meant the concentration needed to bring the measured effect to its halfway point.

In the case of `CNCCCC(=O)c1cccnc1` [compound 4, 4-(methylamino)-1-(pyridine-3-yl)butan-1-one], in the series on Swiss Webster mice (mice, 200 ng every other day, 5 weeks), the “health and autopsy, long-term exposure” value is “remained healthy and autopsies did not reveal any sign of neoplasia or organ damage”. Also, the “health and behavior, short-term” value in the series on Swiss Webster mice (mice, 35, 70 or 140 ng daily, five days) is given as “none of the mice exhibited any evidence of health or behavioral problems”.
With `CN1CCC[C@H]1c1cccnc1` [nicotine, (S)-(−)-nicotine], the terminal half-life in series [1] (regular smoking) was at least 20 h. Also, in series [1] (tobacco use), the elimination half-life is 2 to 3 h. The Ki in series [2] is 1 to 12 nM. Besides, the EC50 was 60 nM in series [3] (read-out: EC50 for activation of nAChr, activation) and 2.8 nM in series [3] (read-out: EC50 for desensitization of nAChr, desensitization).
